Patent US20040176310A1, “Use of extracts and preparations from iris plants and tectorigenin as medicaments” (priority 2001, published 2004)

Key:
[1] = test system: Nerve Growth Factor (NGF); experiment: gene expression of Nerve Growth Factor (bladder); assay type: in vivo, rat
Source text: Bladder tonus is largely influenced by nerve cells located in the bladder wall and other vegetative nerve cells. The “Nerve Growth Factor” (NGF) is an indicator for the local activity of the nerve cells.

[2] = test system: estrogen receptor-alpha; experiment: gene expression of estrogen receptor-alpha in the bladder of castrated rats; assay type: in vivo, rat
[3] = test system: estrogen receptor of alpha-subtype; experiment: gene expression of estrogen receptor alpha-subtype in the prostate of male castrated rat; assay type: in vivo
[4] = test system: estrogen receptor-beta; experiment: gene expression of estrogen receptor-beta in the prostate of male castrated rat; assay type: in vivo
[5] = test system: IGF1; experiment: IGF1 gene expression in the prostate of castrated male rats; assay type: in vivo, rat
Source text: (§1) The prostate regression induced by castration could be antagonized by testosterone in experiments with rats.

[6] = test system: prostate; experiment: prostate regression / testosterone-induced prostate growth in castrated rats; assay type: in vivo, rat
Source text: as §1

| SMILES | gene expression of Nerve Growth Factor (NGF) [1] | gene expression of the estrogen receptor-alpha [2] | gene expression of the estrogen receptor of alpha-subtype [3] | gene expression of the estrogen receptor-beta [4] | gene expression of the growth factor IGF1 [5] | prostate regression induced by castration [6] |
| --- | --- | --- | --- | --- | --- | --- |
| C[C@]12CC[C@@H]3c4ccc(O)cc4CC[C@H]3[C@@H]1CC[C@@H]2O [estradiol, 17β-estradiol] | observed under neither estradiol nor testosterone | regulate down | significantly inhibit | without having an effect | – | – |
| C[C@]12CC[C@H]3[C@@H](CCC4=CC(=O)CC[C@@]43C)[C@@H]1CC[C@@H]2O [testosterone] | observed under neither estradiol nor testosterone | – | – | – | regulated up | antagonized |
